The target in the assay is T1, intracellular domain of human Tie2 (GST fusion protein) (Homo sapiens, UniProt Q02763).
T1 construct: intracellular domain of human Tie2 (amino acids 776-1124); made in house; host or cells: Baculovirus-infected insect cells (Hi5)
The experiment in a line: Tie2 kinase assay (Tie2-TR-FRET). The format is biochemical. The note with it: ATP concentration 1 mM, in some cases means of several independent determinations. On the procedure: The Tie2-inhibitory activity of the substances according to the invention was determined with the aid of one of the Tie2-TR-FRET assays described in the sections below at an ATP concentration of 1 mM (TR-FRET=Time-Resolved Fluorescence Resonance Energy Transfer):
The enzyme used was a recombinant fusion protein of glutathione S-transferase (GST) and the intracellular domain of human Tie2 (amino acids 776-1124) which was expressed in Baculovirus-infected insect cells (Hi5) and was purified by affinity chromatography on glutathione-Sepharose. Alternatively, it is also possible to use commercially available GST-His6-Tie2 fusion protein (ProQinase GmbH, Freiburg im Breisgau, Germany). The substrate used for the kinase reaction was the biotinylated peptide biotin-Ahx-[…] (C-terminus in amide form) which is commercially available (for example from Biosyntan, Berlin, Germany).
For the assay, 50 nl of a 100-fold concentrated solution of the respective test substance in DMSO were pipetted into a black low-volume 384-well microtitre plate (Greiner Bio-One, Frickenhausen, Germany) 2 μl of a solution of the Tie2 fusion protein in assay buffer [50 mM HEPES/HCl pH 7, 10 mM MgCl2, 2.5 mM MnCl2, 1 mM dithiothreitol, 0.01% (v/v) Nonidet P-40, 0.1% (w/v) bovine serum albumin (BSA), 1× Complete EDTA-free protease inhibitor mixture (Roche)] were added, and the mixture was incubated for 15 min to allow pre-binding of the substance to the enzyme prior to the kinase reaction. The kinase reaction was then started by adding 3 μl of a solution of adenosine triphosphate (ATP, 1.67 mM→final concentration in 5 μl assay volume=1 mM) and substrate (1.67 μM→final concentration in 5 μl assay volume=1 μM) in assay buffer, and the resulting mixture was incubated for a reaction time of 60 min at 22° C. The concentration of the Tie2 fusion protein was adapted to the respective activity of the enzyme and adjusted such that the assay was carried out in the linear range. Typical concentrations were in the range of 30 ng/ml.
The reaction was stopped by addition of 5 μl of a solution of TR-FRET detection reagents [200 nM streptavidin-XL665 and 2 nM PT66-Eu chelate, a europium chelate-labelled anti-phosphotyrosine antibody (Perkin-Elmer); alternatively, it is also possible to use PT66-Tb cryptate (Cisbio Bioassays, Codolet, France)] in aqueous EDTA solution[90 mM EDTA, 0.28% (w/v) bovine serum albumin (BSA) in 50 mM HEPES pH 7.5]. The resulting mixture was incubated at 22° C. for 1 h to allow formation of the complex of the biotinylated phosphorylated substrate and the detection reagents. The amount of phosphorylated substrate was then determined by measuring the resonance energy transfer from PT66-Eu chelate to streptavidin-XL665. To this end, the fluorescence emissions at 620 nm and 665 nm after excitation at 350 nm were measured in a TR-FRET measuring instrument (for example Viewlux, Perkin-Elmer). The ratio of the emissions at 665 nm and at 620 nm was taken as a measure of the amount of phosphorylated substrate.
Usually, the test substance in question was tested on the same microtitre plate at […] different concentrations in the range from 20 μM to 0.073 nM (for example at 20 μM, 5.7 μM, 1.6 μM, 0.47 μM, 0.13 μM, 38 nM, 11 nM, 3.1 nM, 0.89 nM, 0.25 nM and 0.073 nM) in duplicate for each concentration. The dilution series were prepared prior to the assay at the stage of the 100-fold concentrated solution by serial dilution (the exact concentrations may vary depending on the pipettors used in each case). IC50 values were calculated using a 4-parameter fit, with the aid of inhouse software.
Table 1 below lists the IC50 values from this assay for individual working examples (in some cases as means of several independent individual determinations): […]

Data on 21 molecules can be found in US20150005288A1, “SUBSTITUTED PHENYLIMIDAZOPYRAZOLES AND USE THEREOF” (Bayer Intellectual Property GmbH, priority 2012, published 2015).

T1 sequence (Q02763 776-1124): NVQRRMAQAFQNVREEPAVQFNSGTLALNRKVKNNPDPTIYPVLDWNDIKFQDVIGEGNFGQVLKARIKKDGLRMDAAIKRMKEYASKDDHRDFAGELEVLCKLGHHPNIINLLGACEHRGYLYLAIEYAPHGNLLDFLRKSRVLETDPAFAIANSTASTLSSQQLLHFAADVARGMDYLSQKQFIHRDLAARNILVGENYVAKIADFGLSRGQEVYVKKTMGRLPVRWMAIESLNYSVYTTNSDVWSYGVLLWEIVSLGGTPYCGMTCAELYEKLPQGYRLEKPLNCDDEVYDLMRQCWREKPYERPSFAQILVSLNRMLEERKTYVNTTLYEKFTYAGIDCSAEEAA

`Cc1ccc(NC(=O)c2cccc(-n3cccn3)c2)cc1-n1ccn2nc(-c3cccnc3)cc12` [Example 55, N-{4-Methyl-3-[6-(pyridin-3-yl)-1H-imidazo[1,2-b]pyrazol-1-yl]phenyl}-3-(1H-pyrazol-1-yl)-benzamide] gave an IC50 of 275 nM. Molecule `Cc1cc(C)c(-n2ccn3nc(-c4cccnc4)cc23)cc1NC(=O)c1cc(C(C)(C)O)cc(S(F)(F)(F)(F)F)c1` [Example 148, N-{2,4-Dimethyl-5-[6-(pyridin-3-yl)-1H-imidazo[1,2-b]pyrazol-1-yl]phenyl}-3-(2-hydroxypropan-2-yl)-5-(pentafluoro-λ^6-sulphanyl)benzamide] returned an IC50 of 0.4 nM. The result for `Cc1ccc(NC(=O)c2cccc(C(C)(C)C)c2)cc1-n1ccn2nc(-c3cn[nH]c3)cc12` [Example 7, 3-tert-Butyl-N-{4-methyl-3-[6-(1H-pyrazol-4-yl)-1H-imidazo[1,2-b]pyrazol-1-yl]phenyl}-benzamide] reads 105 nM; that for `COC1CN(c2cc(C(=O)Nc3cc(-n4ccn5nc(-c6cccnc6)cc45)c(C)cc3C)cc(S(F)(F)(F)(F)F)c2)C1` [Example 146, N-{2,4-Dimethyl-5-[6-(pyridin-3-yl)-1H-imidazo[1,2-b]pyrazol-1-yl]phenyl}-3-(3-methoxyazetidin-1-yl)-5-(pentafluoro-λ^6-sulphanyl)benzamide], 0.7 nM. In the case of `Cc1ccc(NC(=O)c2cccc(C(F)(F)F)c2F)cc1-n1ccn2nc(-c3cccnc3)cc12` [Example 46, 2-Fluoro-N-{4-methyl-3-[6-(pyridin-3-yl)-1H-imidazo[1,2-b]pyrazol-1-yl]phenyl}-3-(trifluoromethyl)benzamide], the midpoint of inhibition, the IC50, lay at 980 nM. Under `COC1CCN(c2cc(C(=O)Nc3cc(-n4ccn5nc(-c6cccnc6)cc45)c(C)cc3C)cc(S(F)(F)(F)(F)F)c2)CC1` [Example 145, N-{2,4-Dimethyl-5-[6-(pyridin-3-yl)-1H-imidazo[1,2-b]pyrazol-1-yl]phenyl}-3-(4-methoxypiperidin-1-yl)-5-(pentafluoro-λ^6-sulphanyl)benzamide] stands 0.9 nM; under `Cc1ccc(NC(=O)c2cc(OCCN)cc(S(F)(F)(F)(F)F)c2)cc1-n1ccn2nc(-c3cccnc3)cc12` [Example 22, 3-(2-Aminoethoxy)-N-{4-methyl-3-[6-(pyridin-3-yl)-1H-imidazo[1,2-b]pyrazol-1-yl]phenyl}-5-(pentafluoro-λ^6-sulphanyl)benzamide], 0.6 nM. `N#Cc1cc(C(=O)Nc2ccc(F)c(-n3ccn4nc(-c5cccnc5)cc34)c2)cc(S(F)(F)(F)(F)F)c1` [Example 71, 3-Cyano-N-{4-fluoro-5-[6-(pyridin-3-yl)-1H-imidazo[1,2-b]pyrazol-1-yl]phenyl}-3-(pentafluoro-λ^6-sulphanyl)benzamide] yielded a concentration for half-maximal inhibition (IC50) of 34 nM.

Consider `Cc1ccc(NC(=O)c2cccc(S(F)(F)(F)(F)F)c2)cc1-n1ccn2nc(-c3cncs3)cc12` [Example 172, N-{4-Methyl-3-[6-(1,3-thiazol-5-yl)-1H-imidazo[1,2-b]pyrazol-1-yl]phenyl}-3-(pentafluoro-λ^6-sulphanyl)benzamide], for which 7.8 nM corresponded to half-maximal inhibition (IC50). The result for `Cc1ccc(NC(=O)c2cccc(C(F)(F)F)c2)cc1-n1ccn2nc(-c3cccnc3)cc12` [Example 39, N-{4-Methyl-3-[6-(pyridin-3-yl)-1H-imidazo[1,2-b]pyrazol-1-yl]phenyl}-3-(trifluoromethyl)-benzamide] reads 320 nM; that for `Cc1ccc(NC(=O)c2cc(CN3CC[C@H](O)C3)cc(S(F)(F)(F)(F)F)c2)cc1-n1ccn2nc(-c3cccnc3)cc12` [Example 34, 3-{[(3S)-3-Hydroxypyrrolidin-1-yl]methyl}-N-{4-methyl-3-[6-(pyridin-3-yl)-1H-imidazo[1,2-b]-pyrazol-1-yl]phenyl}-5-(pentafluoro-λ^6-sulphanyl)benzamide], 2.1 nM; that for `Cc1cc(C)c(-n2ccn3nc(-c4cccnc4)cc23)cc1NC(=O)c1cc(C#N)cc(C(C)(C)C)c1` [Example 114, 3-tert-Butyl-5-cyano-N-{2,4-dimethyl-5-[6-(pyridin-3-yl)-1H-imidazo[1,2-b]pyrazol-1-yl]phenyl}-benzamide], 0.3 nM. The result for `Cc1cc(C)c(-n2ccn3nc(-c4cccnc4)cc23)cc1NC(=O)c1cccc(OCCO)c1` [Example 136, N-{2,4-Dimethyl-5-[6-(pyridin-3-yl)-1H-imidazo[1,2-b]pyrazol-1-yl]phenyl}-3-(2-hydroxyethoxy)benzamide] reads 687 nM; that for `N#Cc1cc(C(=O)Nc2cccc(-n3ccn4nc(-c5cccnc5)cc34)c2F)cc(S(F)(F)(F)(F)F)c1` [Example 81, 3-Cyano-N-{2-fluoro-3-[6-(pyridin-3-yl)-1H-imidazo[1,2-b]pyrazol-1-yl]phenyl}-5-(pentafluoro-λ^6-sulphanyl)benzamide], 435 nM. Under `Cc1ccc(NC(=O)c2cc(C3(O)CNC3)cc(S(F)(F)(F)(F)F)c2)cc1-n1ccn2nc(-c3cccnc3)cc12` [Example 37, 3-(3-Hydroxyazetidin-3-yl)-N-{4-methyl-3-[6-(pyridin-3-yl)-1H-imidazo[1,2-b]pyrazol-1-yl]-phenyl}-5-(pentafluoro-λ^6-sulphanyl)benzamide bis(trifluoroacetate)] stands 0.4 nM; under `Cc1ccc(NC(=O)c2cc(N3CCCC3)ccc2Cl)cc1-n1ccn2nc(-c3cccnc3)cc12` [Example 57, 2-Chloro-N-{4-methyl-3-[6-(pyridin-3-yl)-1H-imidazo[1,2-b]pyrazol-1-yl]phenyl}-5-(pyrrolidin-1-yl)benzamide], 995 nM. Turning to `Cc1ccc(NC(=O)c2ccc(F)c(C(F)(F)F)c2)cc1-n1ccn2nc(-c3cccnc3)cc12` [Example 45, 4-Fluoro-N-{4-methyl-3-[6-(pyridin-3-yl)-1H-imidazo[1,2-b]pyrazol-1-yl]phenyl}-3-(trifluoromethyl)benzamide], the IC50 was determined as 740 nM. The result for `Cc1cc(C)c(-n2ccn3nc(-c4cccnc4)cc23)cc1NC(=O)c1cc(Cl)nc(C(C)(C)C)c1` [Example 115, 2-tert-Butyl-6-chloro-N-{2,4-dimethyl-5-[6-(pyridin-3-yl)-1H-imidazo[1,2-b]pyrazol-1-yl]-phenyl}isonicotinamide] reads 0.8 nM; that for `Cc1ccc(NC(=O)c2cc(N3CCN(C)CC3)cc(S(F)(F)(F)(F)F)c2)cc1-n1cc(C)n2nc(-c3cn[nH]c3)cc12` [Example 11, N-{4-Methyl-3-[3-methyl-6-(1H-pyrazol-4-yl)-1H-imidazo[1,2-b]pyrazol-1-yl]phenyl}-3-(4-methylpiperazin-1-yl)-5-(pentafluoro-λ^6-sulphanyl)benzamide], 0.3 nM. `Cc1ccc(NC(=O)c2cc(N(C)CCCN(C)C)cc(C(F)(F)F)c2)cc1-n1ccn2nc(-c3cccnc3)cc12` [Example 42, 3-{[3-(Dimethylamino)propyl](methyl)amino}-N-{4-methyl-3-[6-(pyridin-3-yl)-1H-imidazo-[1,2-b]pyrazol-1-yl]phenyl}-5-(trifluoromethyl)benzamide]: the IC50 is 1.5 nM.

As for `Cc1cc(C)c(-n2ccn3nc(-c4cccnc4)cc23)cc1NC(=O)c1cccc(OC(F)(F)C(F)F)c1` [Example 129, N-{2,4-Dimethyl-5-[6-(pyridin-3-yl)-1H-imidazo[1,2-b]pyrazol-1-yl]phenyl}-3-(1,1,2,2-tetra-fluoroethoxy)benzamide], half-maximal inhibition (IC50) required 3.2 nM.
